Activity calls are given as the source filed them. The calls are words filed in the database; no cut-off is given here.
Assays:
Homo sapiens [1] = organism: Homo sapiens; assay: Inhibition of alpha-galactosidase (unknown origin) up to 200 uM
[2] = biological target: Alpha amylase (Homo sapiens) (UniProt P0DUB6); assay: Inhibition of alpha-amylase (unknown origin) up to 200 uM
[3] = biological target: T1, Beta-glucosidase (Homo sapiens) (UniProt Q9HCG7); assay: Inhibition of beta-glucosidase (unknown origin) up to 200 uM
T1 sequence (whole entry): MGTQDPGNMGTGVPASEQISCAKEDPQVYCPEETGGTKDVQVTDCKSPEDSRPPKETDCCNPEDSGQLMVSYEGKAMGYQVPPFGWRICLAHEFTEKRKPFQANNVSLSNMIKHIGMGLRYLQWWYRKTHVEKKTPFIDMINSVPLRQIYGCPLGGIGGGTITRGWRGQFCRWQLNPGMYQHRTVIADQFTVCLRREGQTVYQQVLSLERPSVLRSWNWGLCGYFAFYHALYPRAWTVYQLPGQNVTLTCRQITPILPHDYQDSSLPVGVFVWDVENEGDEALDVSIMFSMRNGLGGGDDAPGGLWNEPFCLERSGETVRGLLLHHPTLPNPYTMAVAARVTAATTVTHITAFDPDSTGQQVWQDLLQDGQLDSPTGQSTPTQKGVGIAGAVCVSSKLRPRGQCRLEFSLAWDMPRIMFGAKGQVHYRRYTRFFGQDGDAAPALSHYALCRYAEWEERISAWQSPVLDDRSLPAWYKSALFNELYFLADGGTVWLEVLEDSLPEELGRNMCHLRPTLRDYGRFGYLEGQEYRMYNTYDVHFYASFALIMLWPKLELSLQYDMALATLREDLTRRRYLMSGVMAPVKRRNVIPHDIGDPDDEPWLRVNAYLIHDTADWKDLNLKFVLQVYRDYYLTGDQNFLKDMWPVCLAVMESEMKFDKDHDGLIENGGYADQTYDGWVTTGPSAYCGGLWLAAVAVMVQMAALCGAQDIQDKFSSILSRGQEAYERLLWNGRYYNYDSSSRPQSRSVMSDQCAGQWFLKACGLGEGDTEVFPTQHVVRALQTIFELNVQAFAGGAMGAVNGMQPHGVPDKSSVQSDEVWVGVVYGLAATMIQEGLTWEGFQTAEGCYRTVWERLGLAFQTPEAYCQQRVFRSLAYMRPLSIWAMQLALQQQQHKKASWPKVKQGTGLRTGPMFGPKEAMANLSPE

Homo sapiens [4] = organism: Homo sapiens; assay: Inhibition of alpha-mannosidase (unknown origin) up to 200 uM
[5] = (§1) Inhibition of baker's yeast alpha-glucosidase using pNPG as substrate by spectrophotometry; design: species or system Saccharomyces cerevisiae
Saccharomyces cerevisiae [6] = assay: as §1
[7] = Uncompetitive inhibition of baker's yeast alpha-glucosidase using pNPG as substrate by Cornish-Bowden plot analysis; design: species or system Saccharomyces cerevisiae
Saccharomyces cerevisiae [8] = assay: Uncompetitive inhibition of baker's yeast alpha-glucosidase using pNPG as substrate assessed as ratio of Kik to Kiv at 0.39 uM by Lineweaver-Burk plot analysis
Saccharomyces cerevisiae [9] = assay: Uncompetitive inhibition of baker's yeast alpha-glucosidase using pNPG as substrate assessed as ratio of Kik to Kiv at 0.19 uM by Lineweaver-Burk plot analysis
Saccharomyces cerevisiae [10] = assay: Uncompetitive inhibition of baker's yeast alpha-glucosidase using pNPG as substrate assessed as ratio of Kik to Kiv at 1.56 uM by Lineweaver-Burk plot analysis
Saccharomyces cerevisiae [11] = assay: Uncompetitive inhibition of baker's yeast alpha-glucosidase using pNPG as substrate assessed as ratio of Kik to Kiv at 0.78 uM by Lineweaver-Burk plot analysis

Chain of Alpha amylase (Homo sapiens) (P0DUB6 whole entry, looked up): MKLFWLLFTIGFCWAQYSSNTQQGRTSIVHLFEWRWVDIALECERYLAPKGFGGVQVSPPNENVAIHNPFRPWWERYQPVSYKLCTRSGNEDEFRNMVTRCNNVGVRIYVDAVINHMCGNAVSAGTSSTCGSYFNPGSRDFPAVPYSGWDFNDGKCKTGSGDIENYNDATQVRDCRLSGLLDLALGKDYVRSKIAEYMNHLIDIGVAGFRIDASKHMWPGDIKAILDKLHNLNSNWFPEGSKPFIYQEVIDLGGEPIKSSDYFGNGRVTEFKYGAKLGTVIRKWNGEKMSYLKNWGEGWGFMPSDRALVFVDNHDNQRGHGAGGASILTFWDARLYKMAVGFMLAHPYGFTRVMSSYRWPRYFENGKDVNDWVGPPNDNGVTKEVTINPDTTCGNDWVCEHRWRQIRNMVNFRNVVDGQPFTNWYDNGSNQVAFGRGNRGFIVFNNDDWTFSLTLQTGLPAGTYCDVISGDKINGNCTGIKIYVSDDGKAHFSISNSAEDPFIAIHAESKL

Row | inhibition (Homo sapiens [1]) | inhibition [2] | inhibition [3] | inhibition (Homo sapiens [4]) | IC50 [5] [µM] | inhibition (Saccharomyces cerevisiae [6]) | Ki [7] [µM] | Ratio (Saccharomyces cerevisiae [8]) | Ratio (Saccharomyces cerevisiae [9]) | Ratio (Saccharomyces cerevisiae [10]) | Ratio (Saccharomyces cerevisiae [11]) | SMILES
1 | inactive | inactive | inactive | inactive | 61.5 | Dose-dependent effect | 62.1 |  |  |  |  | COc1cc(/C=C/C(=O)NCC(=O)c2ccc(O)cc2)ccc1O
2 | inactive | inactive | inactive | inactive | 226 | Dose-dependent effect |  |  |  |  |  | COc1cc(/C=C/C(=O)NC(O)C(=O)c2ccc(O)cc2)ccc1O (centres undefined)
3 |  |  |  |  | 1.63 |  | 1.74 |  |  |  |  | O=C(/C=C/c1ccc(O)cc1)NCCc1ccc(O)c(O)c1
4 | inactive | inactive | inactive | inactive | 188 | Dose-dependent effect |  |  |  |  |  | COc1cc(/C=C/C(=O)NCC(O)c2ccc(O)cc2)ccc1O (centres undefined)
5 | inactive | inactive | inactive | inactive | 0.42 | Dose-dependent effect | 0.35 | 1.04 | 1.03 | 1.03 | 1.05 | O=C(/C=C/c1ccc(O)cc1)NCCc1ccc(O)cc1 [N-P-COUMAROYL TYRAMINE]
6 |  |  |  |  | 19 |  | 18.2 |  |  |  |  | O=C(CCc1ccc(O)cc1)NCCc1ccc(O)cc1
7 |  |  |  |  | 1.22 |  | 1.38 |  |  |  |  | O=C(/C=C/c1ccc(O)cc1)NCCc1ccc(F)cc1
9 |  |  |  |  | 0.31 |  | 0.29 |  |  |  |  | O=C(/C=C/c1ccc(O)cc1)NCCc1ccccc1
10 |  |  |  |  | 215 |  |  |  |  |  |  | O=C(/C=C/c1ccccc1)NCCc1ccc(O)cc1
11 | inactive | inactive | inactive | inactive | 1.86 | Dose-dependent effect | 1.77 |  |  |  |  | O=C(/C=C/c1ccc(O)c(O)c1)NCCc1ccc(O)cc1
12 | inactive | inactive | inactive | inactive | 10.6 | Dose-dependent effect | 11.3 |  |  |  |  | COc1cc(/C=C/C(=O)NCCc2ccc(O)cc2)ccc1O [N-TRANS-FERULOYL TYRAMINE]
